Experimental data from US20160375006A1, “USES OF PARALOG-SELECTIVE INHIBITORS OF GSK3 KINASES” (priority 2012, published 2016).

Key:
CGK2 = CGK2 (Homo sapiens, UniProt Q13237)
Description: (§1) This was completed utilizing one of two assays depending on the kinase being examined.
(§2) A solution of IMAP binding reagent (IMAP Screening Express kit; Molecular Devices) (60 μL) was added to each well and incubated for 30 minutes.
(§3) A solution of termination buffer (QuickScout Screening assist MSA; Carna Biosciences) (60 μL) was added to each well. The entire reaction mixture was then applied to a LabChip3000 system (Caliper Life Science) and the product and substrate peptide peaks were separated and quantified.
(§4) The assay utilized was identical to that of the single point inhibitory activity determination (MSA) but run in dose response. […] A solution of termination buffer (QuickScout Screening assist MSA; Carna Biosciences) (60 μL) was added to each well. The entire reaction mixture was then applied to a LabChip3000 system (Caliper Life Science) and the product and substrate peptide peaks were separated and quantified.

MARK1 = MARK1 (Homo sapiens, UniProt Q9P0L2)
Description: as §1, §2, §3, §4

PKACγ = PKACγ (Homo sapiens, UniProt P22612)
Description: as §1, §2, §3, §4

MGC42105 = MGC42105 (Homo sapiens, UniProt Q8IY84)
Description: as §1, §2, §3, §4

BRK = BRK (Homo sapiens, UniProt Q13882)
HER4 = HER4 (Homo sapiens, UniProt Q15303)
Description: as §1, §2, §3

AKT2 = AKT2 (Homo sapiens, UniProt P31751)
Description: as §1, §2, §3, §4

ALK(R1275Q) = ALK(R1275Q) (Homo sapiens, UniProt Q9UM73, R1275Q)
Description: as §1, §2, §3, §4

FMS = FMS (Homo sapiens, UniProt P07333)
Description: as §1, §2, §3, §4

MET(Y1235D) = MET(Y1235D) (Homo sapiens, UniProt P08581, Y1235D)
Description: as §1, §2, §3, §4

TSSK1 = TSSK1 (Homo sapiens, UniProt Q9BXA7)
Description: as §1, §2, §3, §4

ABL = ABL (Homo sapiens, UniProt P00519)
Description: as §1, §2, §3, §4

DDR1 = DDR1 (Homo sapiens, UniProt Q08345)
Description: as §1, §2, §3, §4

KIT(V654A) = KIT(V654A) (Homo sapiens, UniProt P10721, V654A)
Description: as §1, §2, §3, §4

BRAF(V600E)_Cascade = BRAF(V600E)_Cascade (Homo sapiens, UniProt P15056, V600E)
Description: as §1, §2, §3

CLK3 = CLK3 (Homo sapiens, UniProt P49761)
EGFR(T790M/L858R) = EGFR(T790M/L858R) (Homo sapiens, UniProt P00533, L858R/T790M)
Description: as §1, §2, §3, §4

TRKC = TRKC (Homo sapiens, UniProt Q16288)
Description: as §1, §2, §3, §4

FGFR4(V550E) = FGFR4(V550E) (Homo sapiens, UniProt P22455, V550E)
Description: as §1, §2, §3, §4

ROCK1 = ROCK1 (Homo sapiens, UniProt Q13464)
ROCK1, sequence (Q13464 whole entry): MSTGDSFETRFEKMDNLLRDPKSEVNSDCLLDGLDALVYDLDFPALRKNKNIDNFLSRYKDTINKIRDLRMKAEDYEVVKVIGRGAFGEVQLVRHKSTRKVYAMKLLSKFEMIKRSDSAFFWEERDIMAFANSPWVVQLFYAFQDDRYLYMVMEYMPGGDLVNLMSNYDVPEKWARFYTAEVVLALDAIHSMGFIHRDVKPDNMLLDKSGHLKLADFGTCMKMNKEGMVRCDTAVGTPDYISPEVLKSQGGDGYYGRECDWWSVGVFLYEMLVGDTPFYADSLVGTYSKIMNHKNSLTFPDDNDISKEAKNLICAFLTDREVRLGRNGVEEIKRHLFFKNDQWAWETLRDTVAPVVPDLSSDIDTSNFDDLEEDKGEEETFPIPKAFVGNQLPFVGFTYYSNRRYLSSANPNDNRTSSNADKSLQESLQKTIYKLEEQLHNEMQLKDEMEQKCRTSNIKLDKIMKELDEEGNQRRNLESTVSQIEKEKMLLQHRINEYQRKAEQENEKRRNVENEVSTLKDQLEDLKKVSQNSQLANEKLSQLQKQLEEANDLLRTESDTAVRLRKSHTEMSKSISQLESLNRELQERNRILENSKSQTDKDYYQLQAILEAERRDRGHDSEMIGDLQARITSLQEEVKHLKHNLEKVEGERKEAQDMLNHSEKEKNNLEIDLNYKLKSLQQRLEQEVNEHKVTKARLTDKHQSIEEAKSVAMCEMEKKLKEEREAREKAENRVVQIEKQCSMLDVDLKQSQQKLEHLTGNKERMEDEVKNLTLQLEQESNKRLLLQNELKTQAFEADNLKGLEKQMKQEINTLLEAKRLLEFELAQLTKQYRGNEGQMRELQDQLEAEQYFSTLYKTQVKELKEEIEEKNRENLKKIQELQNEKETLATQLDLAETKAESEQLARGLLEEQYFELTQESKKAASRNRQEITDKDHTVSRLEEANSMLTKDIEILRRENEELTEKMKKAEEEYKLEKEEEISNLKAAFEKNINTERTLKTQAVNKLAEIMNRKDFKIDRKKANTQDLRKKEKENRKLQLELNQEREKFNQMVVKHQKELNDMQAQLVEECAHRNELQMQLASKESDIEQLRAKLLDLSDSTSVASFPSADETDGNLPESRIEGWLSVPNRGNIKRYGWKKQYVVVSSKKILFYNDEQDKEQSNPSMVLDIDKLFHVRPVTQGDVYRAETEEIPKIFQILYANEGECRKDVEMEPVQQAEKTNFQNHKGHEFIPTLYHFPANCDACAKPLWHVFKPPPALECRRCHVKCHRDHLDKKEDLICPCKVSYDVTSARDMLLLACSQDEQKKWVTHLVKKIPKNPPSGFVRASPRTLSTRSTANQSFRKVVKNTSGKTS
Description: as §1, §2, §3, §4

PIM1 = PIM1 (Homo sapiens, UniProt P11309)
Description: as §1, §2, §3

PHKG1 = PHKG1 (Homo sapiens, UniProt Q16816)
Description: as §1, §2, §3, §4

IKKα = IKKα (Homo sapiens, UniProt O15111)
Description: as §1, §2, §3, §4

FGFR2 = FGFR2 (Homo sapiens, UniProt P21802)
FGFR2, sequence (P21802 22-821): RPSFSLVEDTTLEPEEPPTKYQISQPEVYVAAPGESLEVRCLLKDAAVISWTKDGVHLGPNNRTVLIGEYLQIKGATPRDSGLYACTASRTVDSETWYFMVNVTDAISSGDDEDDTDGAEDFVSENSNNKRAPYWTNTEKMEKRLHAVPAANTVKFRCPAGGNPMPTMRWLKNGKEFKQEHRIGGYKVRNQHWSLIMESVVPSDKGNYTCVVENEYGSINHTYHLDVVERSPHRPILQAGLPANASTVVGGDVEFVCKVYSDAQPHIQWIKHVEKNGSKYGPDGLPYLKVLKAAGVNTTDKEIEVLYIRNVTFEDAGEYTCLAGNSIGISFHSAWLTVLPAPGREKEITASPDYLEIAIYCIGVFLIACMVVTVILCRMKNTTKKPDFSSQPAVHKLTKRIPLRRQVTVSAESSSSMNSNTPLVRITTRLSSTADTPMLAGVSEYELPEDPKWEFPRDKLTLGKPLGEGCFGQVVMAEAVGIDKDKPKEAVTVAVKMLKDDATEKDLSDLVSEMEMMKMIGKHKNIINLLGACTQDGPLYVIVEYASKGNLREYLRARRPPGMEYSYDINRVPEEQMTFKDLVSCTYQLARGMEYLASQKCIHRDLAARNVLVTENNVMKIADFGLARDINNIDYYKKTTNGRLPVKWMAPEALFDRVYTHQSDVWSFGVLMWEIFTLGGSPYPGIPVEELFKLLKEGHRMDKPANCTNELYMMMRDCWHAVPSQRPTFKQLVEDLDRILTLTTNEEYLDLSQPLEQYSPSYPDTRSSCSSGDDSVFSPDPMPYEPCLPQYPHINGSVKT
Description: as §1, §2, §3

p38β = p38β (Homo sapiens, UniProt Q15759)
p38β, sequence (Q15759 whole entry): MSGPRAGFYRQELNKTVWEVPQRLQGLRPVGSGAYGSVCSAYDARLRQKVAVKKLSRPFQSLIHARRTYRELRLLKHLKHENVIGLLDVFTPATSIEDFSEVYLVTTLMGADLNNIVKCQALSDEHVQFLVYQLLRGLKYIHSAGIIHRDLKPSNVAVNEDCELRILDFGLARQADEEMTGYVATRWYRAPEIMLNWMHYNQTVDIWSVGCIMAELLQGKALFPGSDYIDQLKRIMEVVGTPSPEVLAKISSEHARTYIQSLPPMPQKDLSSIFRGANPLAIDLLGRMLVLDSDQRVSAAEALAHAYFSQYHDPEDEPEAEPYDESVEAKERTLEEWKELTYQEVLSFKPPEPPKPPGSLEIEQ
Description: as §1, §2, §3, §4

PRKX = PRKX (Homo sapiens, UniProt P51817)
Description: as §1, §2, §3, §4

QIK = QIK (Homo sapiens, UniProt Q9H0K1)
Description: as §1, §2, §3, §4

PAK4 = PAK4 (Homo sapiens, UniProt O96013)
Description: as §1, §2, §3

TBK1 = TBK1 (Homo sapiens, UniProt Q9UHD2)
Description: as §1, §2, §3

CK1δ = CK1δ (Homo sapiens, UniProt P48730)
CK1δ, sequence (P48730 whole entry): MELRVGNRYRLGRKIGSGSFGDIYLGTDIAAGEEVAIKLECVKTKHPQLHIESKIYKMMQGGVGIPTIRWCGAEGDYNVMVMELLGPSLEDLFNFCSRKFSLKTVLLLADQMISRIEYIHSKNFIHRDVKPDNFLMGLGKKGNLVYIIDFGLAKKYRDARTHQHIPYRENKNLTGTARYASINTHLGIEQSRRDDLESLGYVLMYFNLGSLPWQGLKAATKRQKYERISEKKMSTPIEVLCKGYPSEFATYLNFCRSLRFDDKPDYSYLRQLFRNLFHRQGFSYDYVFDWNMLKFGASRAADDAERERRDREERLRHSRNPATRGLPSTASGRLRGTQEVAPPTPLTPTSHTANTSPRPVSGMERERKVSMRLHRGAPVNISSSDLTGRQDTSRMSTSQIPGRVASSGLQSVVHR

CDK6/CycD3 = CDK6/CycD3 (Homo sapiens, UniProt Q00534)
CDK6/CycD3, sequence (Q00534 whole entry): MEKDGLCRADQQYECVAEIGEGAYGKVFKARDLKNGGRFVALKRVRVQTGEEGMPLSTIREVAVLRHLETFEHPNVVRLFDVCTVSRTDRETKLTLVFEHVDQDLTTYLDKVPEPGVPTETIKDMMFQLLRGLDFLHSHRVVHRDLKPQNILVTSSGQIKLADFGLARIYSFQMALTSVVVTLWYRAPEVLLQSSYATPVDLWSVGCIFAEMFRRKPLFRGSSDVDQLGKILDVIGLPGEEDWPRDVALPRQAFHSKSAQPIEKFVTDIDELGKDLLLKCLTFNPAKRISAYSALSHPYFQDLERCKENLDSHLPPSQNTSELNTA
CDK6/CycD3, sequence (P30281 whole entry partner): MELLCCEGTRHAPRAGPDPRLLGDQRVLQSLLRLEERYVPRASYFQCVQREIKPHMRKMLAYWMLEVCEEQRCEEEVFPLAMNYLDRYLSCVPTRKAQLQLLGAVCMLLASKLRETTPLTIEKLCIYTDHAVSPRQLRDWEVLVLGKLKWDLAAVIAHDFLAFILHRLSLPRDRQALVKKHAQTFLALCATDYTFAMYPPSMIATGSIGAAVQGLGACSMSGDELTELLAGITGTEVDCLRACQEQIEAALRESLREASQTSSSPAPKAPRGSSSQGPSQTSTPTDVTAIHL
Description: as §1, §2, §3, §4

EGFR(d746-750/T790M) = EGFR(d746-750/T790M) (Homo sapiens, UniProt P00533, DEL746-750/T790M)
EGFR(d746-750/T790M), sequence (P00533 with tags, fused parts or gaps DEL746-750/T790M limits assumed): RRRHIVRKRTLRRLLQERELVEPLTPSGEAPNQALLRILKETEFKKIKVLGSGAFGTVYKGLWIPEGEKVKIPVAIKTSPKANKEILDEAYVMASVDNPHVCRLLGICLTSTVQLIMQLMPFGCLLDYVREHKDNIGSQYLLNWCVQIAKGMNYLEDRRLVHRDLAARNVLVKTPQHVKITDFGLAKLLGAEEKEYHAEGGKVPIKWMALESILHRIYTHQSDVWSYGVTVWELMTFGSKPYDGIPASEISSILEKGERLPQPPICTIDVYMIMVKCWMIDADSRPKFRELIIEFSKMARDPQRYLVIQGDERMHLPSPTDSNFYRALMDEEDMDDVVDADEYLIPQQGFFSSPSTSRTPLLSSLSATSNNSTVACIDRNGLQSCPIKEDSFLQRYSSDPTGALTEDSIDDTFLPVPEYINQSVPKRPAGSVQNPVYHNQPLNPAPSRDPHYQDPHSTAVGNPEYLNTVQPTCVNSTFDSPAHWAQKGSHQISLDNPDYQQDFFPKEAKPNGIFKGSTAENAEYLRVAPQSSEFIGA
Description: as §1, §2, §3, §4

PKCδ = PKCδ (Homo sapiens, UniProt Q05655)
Description: as §1, §2, §3, §4

SRPK2 = SRPK2 (Homo sapiens, UniProt P78362)
Description: as §2, §3, §4

PBK = PBK (Homo sapiens, UniProt Q96KB5)
PBK, sequence (Q96KB5 whole entry): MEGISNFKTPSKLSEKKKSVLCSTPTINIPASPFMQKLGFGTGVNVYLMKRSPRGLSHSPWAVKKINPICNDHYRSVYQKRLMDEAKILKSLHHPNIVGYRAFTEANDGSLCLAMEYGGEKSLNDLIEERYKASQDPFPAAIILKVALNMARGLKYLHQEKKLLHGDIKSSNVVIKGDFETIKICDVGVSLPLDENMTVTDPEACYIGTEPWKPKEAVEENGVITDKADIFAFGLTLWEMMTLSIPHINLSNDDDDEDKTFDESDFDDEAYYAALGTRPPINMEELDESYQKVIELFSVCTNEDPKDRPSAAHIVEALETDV
Description: as §1, §2, §3, §4

PEK = PEK (Homo sapiens, UniProt Q9NZJ5)
Description: as §1, §2, §3

FGFR3 = FGFR3 (Homo sapiens, UniProt P22607)
Description: as §2, §3, §4

MAPKAPK3 = MAPKAPK3 (Homo sapiens, UniProt Q16644)
MAPKAPK3, sequence (Q16644 whole entry): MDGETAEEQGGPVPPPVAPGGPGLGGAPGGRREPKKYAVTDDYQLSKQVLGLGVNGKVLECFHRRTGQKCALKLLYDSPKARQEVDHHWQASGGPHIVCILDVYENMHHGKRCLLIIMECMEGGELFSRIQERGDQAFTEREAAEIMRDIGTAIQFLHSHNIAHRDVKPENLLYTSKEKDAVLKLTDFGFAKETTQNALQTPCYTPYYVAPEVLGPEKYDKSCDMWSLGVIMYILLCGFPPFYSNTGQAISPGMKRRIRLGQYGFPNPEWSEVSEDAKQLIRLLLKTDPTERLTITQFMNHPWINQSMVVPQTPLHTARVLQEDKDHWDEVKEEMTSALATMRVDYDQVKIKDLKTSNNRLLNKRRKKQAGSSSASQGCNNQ
Description: as §1, §2, §3, §4

ROS = ROS (Homo sapiens, UniProt P08922)
Description: as §1, §2, §3, §4

## CC[C@@]1(c2ccccc2)C2=C(CC(C)(C)CC2=O)Nc2n[nH]cc21 [BRD0705]
CGK2
  % Inhibition at 10 μM: −7.3%
MARK1
  % Inhibition at 10 μM: 3.1%
PKACγ
  % Inhibition at 10 μM: −3.6%
MGC42105
  % Inhibition at 10 μM: −9.9%
BRK
  % Inhibition at 10 μM: −1.4%
HER4
  % Inhibition at 10 μM: 1.3%
AKT2
  % Inhibition at 10 μM: −4.7%
ALK(R1275Q)
  % Inhibition at 10 μM: 0.7%
FMS
  % Inhibition at 10 μM: −8.2%
MET(Y1235D)
  % Inhibition at 10 μM: −1.0%
TSSK1
  % Inhibition at 10 μM: −8.5%
ABL
  % Inhibition at 10 μM: 4.2%
DDR1
  % Inhibition at 10 μM: −2.0%
KIT(V654A)
  % Inhibition at 10 μM: −1.0%
BRAF(V600E)_Cascade
  % Inhibition at 10 μM: 7.0%
CLK3
  % Inhibition at 10 μM: −1.5%
EGFR(T790M/L858R)
  % Inhibition at 10 μM: −4.0%
TRKC
  % Inhibition at 10 μM: 6.4%
FGFR4(V550E)
  % Inhibition at 10 μM: −0.5%
ROCK1
  % Inhibition at 10 μM: −2.0%
PIM1
  % Inhibition at 10 μM: −3.4%
PHKG1
  % Inhibition at 10 μM: −2.5%
IKKα
  % Inhibition at 10 μM: −0.2%
FGFR2
  % Inhibition at 10 μM: −9.2%
p38β
  % Inhibition at 10 μM: −2.7%
PRKX
  % Inhibition at 10 μM: −4.7%
QIK
  % Inhibition at 10 μM: −6.4%
PAK4
  % Inhibition at 10 μM: 33.8%
TBK1
  % Inhibition at 10 μM: 1.7%
CK1δ
  % Inhibition at 10 μM: −3.9%
CDK6/CycD3; CDK6/CycD3
  % Inhibition at 10 μM: −0.5%
EGFR(d746-750/T790M)
  % Inhibition at 10 μM: −3.5%
PKCδ
  % Inhibition at 10 μM: −5.5%
SRPK2
  % Inhibition at 10 μM: −2.5%
PBK
  % Inhibition at 10 μM: −8.0%
PEK
  % Inhibition at 10 μM: 1.7%
FGFR3
  % Inhibition at 10 μM: −2.8%
MAPKAPK3
  % Inhibition at 10 μM: −8.3%
ROS
  % Inhibition at 10 μM: 31.3%

## CC(C)(C)Cc1[nH]nc2c1[C@](C)(c1ccccc1)C1=C(CC(C)(C)CC1=O)N2 [BRD3731]
CGK2; 10 μM
  % Inhibition 10 μM: 4.4%
MARK1; 10 μM
  % Inhibition 10 μM: 9.3%
PKACγ; 10 μM
  % Inhibition 10 μM: 6.5%
MGC42105; 10 μM
  % Inhibition 10 μM: −2.4%
BRK; 10 μM
  % Inhibition 10 μM: −5.6%
HER4; 10 μM
  % Inhibition 10 μM: 6.5%
AKT2; 10 μM
  % Inhibition 10 μM: −8.4%
ALK(R1275Q); 10 μM
  % Inhibition 10 μM: 1.9%
FMS; 10 μM
  % Inhibition 10 μM: 5.2%
MET(Y1235D); 10 μM
  % Inhibition 10 μM: 1.2%
TSSK1; 10 μM
  % Inhibition 10 μM: −0.8%
ABL; 10 μM
  % Inhibition 10 μM: 11.4%
DDR1; 10 μM
  % Inhibition 10 μM: 7.6%
KIT(V654A); 10 μM
  % Inhibition 10 μM: −1.9%
BRAF(V600E)_Cascade; 10 μM
  % Inhibition 10 μM: −5.2%
CLK3; 10 μM
  % Inhibition 10 μM: 4.0%
EGFR(T790M/L858R); 10 μM
  % Inhibition 10 μM: −4.0%
TRKC; 10 μM
  % Inhibition 10 μM: 12.1%
FGFR4(V550E); 10 μM
  % Inhibition 10 μM: 0.1%
ROCK1; 10 μM
  % Inhibition 10 μM: 0.8%
PIM1; 10 μM
  % Inhibition 10 μM: 11.0%
PHKG1; 10 μM
  % Inhibition 10 μM: 13.9%
IKKα; 10 μM
  % Inhibition 10 μM: 1.8%
FGFR2; 10 μM
  % Inhibition 10 μM: 1.9%
p38β; 10 μM
  % Inhibition 10 μM: −0.2%
PRKX; 10 μM
  % Inhibition 10 μM: −0.2%
QIK; 10 μM
  % Inhibition 10 μM: −4.1%
PAK4; 10 μM
  % Inhibition 10 μM: 0.6%
TBK1; 10 μM
  % Inhibition 10 μM: −0.5%
CK1δ; 10 μM
  % Inhibition 10 μM: 10.7%
CDK6/CycD3; CDK6/CycD3
  IC50: > 10 µM
CDK6/CycD3; CDK6/CycD3, 10 μM
  % Inhibition 10 μM: 28.3%
CDK6/CycD3; IC50 CDK6/CycD3 / IC50 GSK3β
  Fold Selectivity: >370 fold
EGFR(d746-750/T790M); 10 μM
  % Inhibition 10 μM: 3.7%
PKCδ; 10 μM
  % Inhibition 10 μM: 10.7%
SRPK2; 10 μM
  % Inhibition 10 μM: 6.4%
PBK; 10 μM
  % Inhibition 10 μM: 0.6%
PEK; 10 μM
  % Inhibition 10 μM: 1.4%
FGFR3; 10 μM
  % Inhibition 10 μM: −0.7%
MAPKAPK3; 10 μM
  % Inhibition 10 μM: 6.0%
ROS; 10 μM
  % Inhibition 10 μM: 0.9%
